Assay results reported in patent publication US10442793B2, “Oxa spiro derivative, preparation method therefor, and applications thereof in medicines” (Jiangsu Hengrui Medicine Co., Ltd., priority 2015, dated 2019).
Read-outs that look alike come from different tables or passages of the source.

Assays:
Format in all cases: cell-based
KOR receptor = biological target: T1, KOR receptor (Homo sapiens, UniProt P41145); assay: KOR activity test: HEK293/KOR/CRE luciferase reporter, cAMP levels; conditions: for Emax: HEK293, maximum effect of morphine is 100%
T1 construct: expressed in transfected cells; host or cells: HEK293
T1 sequence (P41145 whole entry): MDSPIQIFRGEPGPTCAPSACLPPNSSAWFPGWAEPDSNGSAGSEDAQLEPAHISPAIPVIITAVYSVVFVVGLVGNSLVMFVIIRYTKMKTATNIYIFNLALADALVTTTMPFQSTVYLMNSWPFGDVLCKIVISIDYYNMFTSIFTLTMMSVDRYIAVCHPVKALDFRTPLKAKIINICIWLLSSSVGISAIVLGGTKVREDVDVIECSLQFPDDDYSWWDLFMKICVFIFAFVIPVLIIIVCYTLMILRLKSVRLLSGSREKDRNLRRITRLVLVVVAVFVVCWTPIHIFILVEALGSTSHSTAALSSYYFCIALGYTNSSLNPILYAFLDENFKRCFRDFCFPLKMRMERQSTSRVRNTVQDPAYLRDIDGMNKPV
Procedure: (§1) The experiment objective is to determine the activity of the compounds of the present invention on agonizing KOR receptor and DOR receptor, and affecting downstream cAMP levels.
(§2) 90 μl of HEK293/KOR/CRE or HEK293/DOR/CRE (CRE cDNA purchased from Promega, product number E8471, KOR cDNA and DOR cDNA were constructed by our company) cells were inoculated in a 96-well plate with a density of 1×10^4 cells/well. Then, the cells were incubated overnight at 37° C., in 5% CO2. The drug was prepared as a 20 mM stock solution that was later diluted with 100% DMSO to a 200×concentration gradient, and then diluted with a 20-fold DMEM/high glucose (SH30243.01B, Hyclone) medium. The cell culture plate inoculated on the first day was taken out, and […] of the diluted drug or control (0.5% DMSO) was added to each well. The plate was gently shaken and placed in a incubator at 37° C., 5% CO2 for 4 hours. Finally, 100 μl of a detection reagent ONE-Glo (E6120, Promega) was added to each well, and the plate was placed at room temperature for 5 minutes. The absorbance value was measured by the cold light model of a microplate reader (PE, Victor3). The EC50 value of the compound was calculated by Graphpad Prism software according to each concentration of the compound and the corresponding signal value. Emax is the maximum effect of the compound on cAMP level changes.
(§3) The activity of the compounds of the present invention on agonizing KOR receptor or DOR receptor and affecting downstream cAMP levels was determined by the above test, and the EC50 values are shown in Table 1.2.

MOR receptor = biological target: T2, MOR receptor (Homo sapiens, UniProt P35372); assay: Activation of the β-arrestin signaling pathway of MOR receptor (CHO-K1 OPRM1 β-Arrestin cells, DiscoveRX); conditions: for Emax: maximum effect of morphine is 100%
T2 construct: host or cells: CHO-K1
T2 sequence (P35372 whole entry): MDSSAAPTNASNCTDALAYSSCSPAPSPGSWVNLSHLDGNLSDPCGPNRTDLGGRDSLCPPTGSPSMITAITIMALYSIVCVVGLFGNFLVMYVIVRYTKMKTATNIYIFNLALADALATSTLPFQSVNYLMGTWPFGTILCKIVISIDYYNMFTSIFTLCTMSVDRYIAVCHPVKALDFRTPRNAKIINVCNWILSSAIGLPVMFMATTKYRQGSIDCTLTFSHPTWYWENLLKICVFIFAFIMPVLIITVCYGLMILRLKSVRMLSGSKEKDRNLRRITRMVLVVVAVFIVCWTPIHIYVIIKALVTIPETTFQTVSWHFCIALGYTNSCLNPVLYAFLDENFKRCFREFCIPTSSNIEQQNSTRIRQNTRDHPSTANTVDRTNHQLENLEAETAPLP
Procedure: The experiment objective is to determine the activity of the compounds of the present invention on activating the β-arrestin signaling pathway of MOR receptor.
The drug was prepared as a 20 mM stock solution that was later diluted with 100% DMSO to a 200×concentration gradient, and then diluted with a 20-fold AssayComplete™ Cell Plating 2 Reagent (93-0563R2B, DiscoveRX) medium. The cell culture plate inoculated on the first day was taken out, and 10 μl of the diluted drug or control (0.5% DMSO) was added to each well. The plate was gently shaken and placed in an incubator at 37° C., 5% CO2 for 90 minutes. Finally, 50 μL of a detection reagent (93-0001, DiscoveRX) were added to each well, and the plate was placed at room temperature for 60 minutes. The absorbance values were measured by the cold light model of a microplate reader (PE, Victor3). The EC50 values of the compounds were calculated by Graphpad Prism software according to each concentration of the compound and the corresponding signal value.

DOR receptor = biological target: T3, DOR receptor (Homo sapiens, UniProt P41143); assay: DOR activity test: HEK293/DOR/CRE luciferase reporter, cAMP levels; conditions: for Emax: HEK293, maximum effect of morphine is 100%
T3 construct: expressed in transfected cells; host or cells: HEK293
T3 sequence (P41143 whole entry): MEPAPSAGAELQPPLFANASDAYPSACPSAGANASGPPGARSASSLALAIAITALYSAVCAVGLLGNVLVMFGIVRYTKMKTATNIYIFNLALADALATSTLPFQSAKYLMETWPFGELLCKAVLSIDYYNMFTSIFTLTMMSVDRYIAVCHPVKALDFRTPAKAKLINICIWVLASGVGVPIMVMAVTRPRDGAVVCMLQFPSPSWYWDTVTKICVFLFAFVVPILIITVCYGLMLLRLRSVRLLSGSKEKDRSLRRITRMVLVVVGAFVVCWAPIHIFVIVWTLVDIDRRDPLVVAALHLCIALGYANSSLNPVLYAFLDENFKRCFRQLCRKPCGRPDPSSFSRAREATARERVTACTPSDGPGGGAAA
Procedure: as §1, §2, §3

μ-opioid receptors (MOR) = biological target: T4, μ-opioid receptors (MOR) (Homo sapiens, UniProt P35372); assay: MOR activity test: HEK293/MOR/CRE luciferase reporter, agonizing MOR and affecting downstream cAMP levels; conditions: for Emax: HEK293, maximum effect of TRV-130 is 100%, read-out: Emax on agonizing MOR receptor and affecting cAMP levels
T4 construct: host or cells: HEK293
T4 sequence (P35372 whole entry): as the sequence (P35372 whole entry) above
From the text: The compounds of the present invention can activate μ-opioid receptors (MOR). Activated MOR can regulate intracellular cAMP levels, and cAMP enters the nucleus and binds to the CRE region of the reporter gene luciferase, thereby initiating the expression of the reporter gene. Luciferase can react with its substrate to emit fluorescence, and the measured fluorescence signals reflect the agonistic activity of the compounds.
The activity of the test example compounds on agonizing MOR and affecting downstream cAMP levels was tested by the following method.
MOR/pcDNA3.1 (+) and CRE/pGL4.29 were transferred into HEK293 cells. G418 and hygromycin were added into the culture medium, and HEK293/MOR/CRE monoclonal cell lines were screened in a 96-well cell culture plate.
HEK293/MOR/CRE monoclonal cells were cultured in a DMEM/high glucose medium (10% FBS, 1 mg/ml G418, 200 μg/ml hygromycin, mixed uniformly), and passaged every 3 days. On the day of the experiment, a cell suspension was prepared with a fresh cell medium, added to a 96 well plate (BD, #356692) with 20,000 cells/well, and incubated in 5% CO2 at 37° C. On the second day, the compound was dissolved in pure DMSO at a concentration of 20 mM, then formulated with DMSO to a first concentration of 4 mM and diluted in 10 fold concentration gradient to 6 concentrations. Then, 90 μl of DMSO was added to blank and control wells. Then, formulated compound was prepared by adding 2.5 μl of the compound solutions formulated in DMSO at a gradient concentration to 97.5 μl of a fresh cell culture medium containing 5 μM foscolin. Then, 10 μl of the formulated compound was added to the cell culture plate to make the final concentration of the compound 10000, 1000, 100, 10, 1, 0.1, or 0.01 nM, and the plate was incubated at 37° C., in 5% CO2 for 5 hours. In a 96-well cell culture plate, 100 μl of luciferase assay solution (Promega, # E6110) was added to each well. The plate was placed in the dark at room temperature for 10-15 minutes, blowed and aspirated 10 times, and 100 μl were pipetted to a 96 well white plate. The chemiluminescence signal values were read in a microplate reader (PE, Victor3), and the read data was processed using software.
The activity of the compounds of the present invention on agonizing MOR and affecting downstream cAMP levels was determined by the above test, and the EC50 values are shown in Table 1.1.

hERG potassium channel = biological target: T5, hERG potassium channel (Homo sapiens, UniProt Q12809); assay: Blocking of hERG potassium current, automatic patch clamp on HEK293-hERG cells
T5 construct: expressed in transfected cells; host or cells: HEK293
T5 sequence (Q12809 whole entry): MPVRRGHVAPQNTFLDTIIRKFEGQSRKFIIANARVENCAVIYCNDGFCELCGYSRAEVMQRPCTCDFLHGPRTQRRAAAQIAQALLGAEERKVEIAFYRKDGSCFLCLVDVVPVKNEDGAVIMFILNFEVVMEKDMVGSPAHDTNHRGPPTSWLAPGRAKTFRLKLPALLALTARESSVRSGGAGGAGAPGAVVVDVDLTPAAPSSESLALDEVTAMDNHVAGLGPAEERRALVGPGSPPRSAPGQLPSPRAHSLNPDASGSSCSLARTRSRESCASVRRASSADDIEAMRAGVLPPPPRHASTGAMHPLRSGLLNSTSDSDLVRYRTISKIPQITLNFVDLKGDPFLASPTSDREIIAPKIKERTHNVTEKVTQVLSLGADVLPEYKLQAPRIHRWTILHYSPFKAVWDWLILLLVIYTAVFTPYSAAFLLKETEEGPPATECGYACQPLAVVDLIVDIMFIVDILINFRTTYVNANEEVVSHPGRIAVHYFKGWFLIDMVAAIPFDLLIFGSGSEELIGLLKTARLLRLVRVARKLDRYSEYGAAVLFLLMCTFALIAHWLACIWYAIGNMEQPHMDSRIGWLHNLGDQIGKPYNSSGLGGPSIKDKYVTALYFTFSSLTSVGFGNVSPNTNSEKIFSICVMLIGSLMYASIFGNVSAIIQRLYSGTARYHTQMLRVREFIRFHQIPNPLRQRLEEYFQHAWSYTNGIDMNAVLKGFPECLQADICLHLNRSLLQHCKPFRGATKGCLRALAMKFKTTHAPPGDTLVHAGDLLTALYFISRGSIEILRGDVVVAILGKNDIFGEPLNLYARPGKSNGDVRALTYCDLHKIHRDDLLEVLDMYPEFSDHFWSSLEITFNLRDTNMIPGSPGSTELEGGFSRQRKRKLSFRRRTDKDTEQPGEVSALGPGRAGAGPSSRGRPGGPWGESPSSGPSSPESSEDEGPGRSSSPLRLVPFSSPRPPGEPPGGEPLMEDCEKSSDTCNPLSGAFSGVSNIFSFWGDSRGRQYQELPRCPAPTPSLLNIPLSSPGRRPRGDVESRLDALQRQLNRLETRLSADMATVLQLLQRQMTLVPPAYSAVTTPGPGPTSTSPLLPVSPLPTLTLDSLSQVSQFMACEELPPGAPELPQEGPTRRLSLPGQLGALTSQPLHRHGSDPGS
Procedure: The blocking effect of the compounds of the present invention and the positive compound TRV-130 (Journal of Pharmacology and Experimental Therapeutics, Volume 344, Issue 3, Pages 708-717, 2013) on hERG potassium current was tested on a stable cell line transfected with hERG potassium channel using an automatic patch clamp.
HEK293-hERG stabilized cells were subcultured at a density of 1:4 in a MEM/EBSS medium (10% FBS, 400 μg/ml G418, 1% MEM nonessential amino acid solution (100×), 1% sodium pyruvate solution) for 48-72 hours, then the automatic patch clamp experiment was performed. The cells were digested with 0.25% trypsin on the day of the experiment, then the cells were collected by centrifugation and resuspended with extracellular fluid (140 mM NaCl, 4 mM KCl, 1 mM MgCl2, 2 mM CaCl2, 5 mM D-glucose monohydrate, 10 mM Hepes, pH 7.4, 298 mOsmol) into a cell suspension. The cell suspension was placed on the cell bank of the Patchliner instrument, and the cells were added to the chip (NPC-16) by the negative pressure controller of the Patchliner instrument, with negative pressure attracting individual cells to the small hole of the chip. After the whole cell model was formed, the instrument generated the hERG current according to the preset hERG current and voltage program, and then the instrument perfused the compound from low concentration to high concentration automatically. HEAK Patchmaster, HEAK EPC10 patch clamp amplifier (Nanion), Pathliner software, and a data analysis software provided by Pathcontrol HTsoftware were used to analyze the current of the compounds at different concentrations and the current of the blank control.
The blocking effect of the compounds of the present invention on hERG potassium current was determined by the above test, and the IC50 values are shown in Table 3.

[1] = CHO-K1 OPRM1 β-Arrestin cells, 90 minutes, read-out: EC50 on the β-arrestin signaling pathway
[2] = HEK293/MOR/CRE cells, 5 h incubation, forskolin, read-out: EC50 on agonizing MOR receptor and affecting cAMP levels
[3] = HEK293-hERG cells, automatic patch clamp, read-out: IC50 on blocking hERG potassium current
[4] = HEK293/KOR/CRE cells, 4 h incubation, read-out: KOR EC50
[5] = HEK293/DOR/CRE cells, 4 h incubation, read-out: DOR EC50

Structure (SMILES) | EC50 (KOR receptor) [nM] | Emax (KOR receptor) [%] | EC50 (MOR receptor) [nM] | Emax (MOR receptor) [%] | EC50 (DOR receptor) [nM] | Emax (DOR receptor) [%] | EC50 (μ-opioid receptors (MOR)) [nM] | Emax (μ-opioid receptors (MOR)) [%] | IC50 (hERG potassium channel) [nM] | EC50 (MOR receptor; [1]) [nM] | EC50 (μ-opioid receptors (MOR); [2]) [nM] | IC50 (hERG potassium channel; [3]) [nM] | EC50 (KOR receptor; [4]) [nM] | EC50 (DOR receptor; [5]) [nM]
O=C1CC[C@H](NCC[C@@]2(c3ccccn3)CCOC3(CCCC3)C2)c2ccccc21 [Example 11, (S)-4-((2-((R)-9-(pyridin-2-yl)-6-oxaspiro[4.5]decan-9-yl)ethyl)amino)-3,4-dihydronaphthalen-1(2H)-one] | 277 | 98 | 305 | 37 | 1920 | 80 | 17 | 112 | 4100 |  |  |  |  | 
CCO[C@H]1CC[C@H](NCC[C@@]2(c3ccccn3)CCOC3(CCCC3)C2)c2ccccc21 [Example 19, (1S,4S)-4-ethoxy-N-(2-((R)-9-(pyridin-2-yl)-6-oxaspiro[4.5]decan-9-yl)ethyl)-1,2,3,4-tetrahydronaphthalen-1-amine] | 862 | 96 | 24 | 13 | 552 | 108 | 2 | 98 | 5900 |  |  |  |  | 
c1ccc([C@]2(CCN[C@H]3CCC4(SCCS4)c4ccccc43)CCOC3(CCCC3)C2)nc1 [Example 24, (S)-N-(2-((R)-9-(pyridin-2-yl)-6-oxaspiro[4.5]decan-9-yl)ethyl)-3′,4′-dihydro-2′H-spiro[[1,3]dithiolane-2,1′-naphthalen]-4′-amine] |  |  |  | 30 |  |  |  | 102 |  | 6 | 0.8 | 2500 |  | 
COC[C@H]1CC[C@H](NCC[C@@]2(c3ccccn3)CCOC3(CCCC3)C2)c2ccccc21 [Example 22, (1S,4S)-4-(methoxymethyl)-N-(2-((R)-9-(pyridin-2-yl)-6-oxaspiro[4.5]decan-9-yl)ethyl)-1,2,3,4-tetrahydronaphthalen-1-amine] | 3090 | 97 | 41 | 18 | 2400 | 102 | 4 | 103 | 3800 |  |  |  |  | 
c1ccc([C@]2(CCN[C@H]3CC[C@H](OCC4CC4)c4ccccc43)CCOC3(CCCC3)C2)nc1 [Example 20, (1S,4S)-4-(cyclopropylmethoxy)-N-(2-((R)-9-(pyridin-2-yl)-6-oxaspiro[4.5]decan-9-yl)ethyl)-1,2,3,4-tetrahydronaphthalen-1-amine] |  | 103 |  | 9 |  | 118 |  |  |  | 4 |  |  | 710 | 1520
CO[C@H]1CC[C@H](NCC[C@@]2(c3ccccn3)CCOC3(CCCC3)C2)c2ccccc21 [Example 14, (1S,4S)-4-methoxy-N-(2-((R)-9-(pyridin-2-yl)-6-oxaspiro[4.5]decan-9-yl)ethyl)-1,2,3,4-tetrahydronaphthalen-1-amine] | 1470 | 74 | 26 | 24 | 1510 | 91 | 3 | 109 | 8600 |  |  |  |  | 
CCN1CC[C@H](NCC[C@@]2(c3ccccn3)CCOC3(CCCC3)C2)c2ccccc21 [Example 1, (S)-1-ethyl-N-(2-((R)-9-(pyridin-2-yl)-6-oxaspiro[4.5]decan-9-yl)ethyl)-1,2,3,4-tetrahydroquinolin-4-amine] |  |  |  | 12 |  |  |  | 102 |  | 4 | 10 | 13000 |  | 
c1ccc([C@]2(CCN[C@H]3CCc4ccccc43)CCOC3(CCCC3)C2)nc1 [Example 16, (S)-N-(2-((R)-9-(pyridin-2-yl)-6-oxaspiro[4.5]decan-9-yl)ethyl)-2,3-dihydro-1H-inden-1-amine] |  |  | 94 | 9 |  |  | 9 | 122 | 10000 |  |  |  |  | 
FCCO[C@H]1CC[C@H](NCC[C@@]2(c3ccccn3)CCOC3(CCCC3)C2)c2ccccc21 [Example 21, (1S,4S)-4-(2-fluoroethoxy)-N-(2-((R)-9-(pyridin-2-yl)-6-oxaspiro[4.5]decan-9-yl)ethyl)-1,2,3,4-tetrahydronaphthalen-1-amine] |  | 100 |  |  |  | 107 |  | 110 |  |  | 5 | 4200 | 1180 | 1490
O[C@@H]1CC[C@H](NCC[C@@]2(c3ccccn3)CCOC3(CCCC3)C2)c2ccccc21 [Example 13, (1R,4S)-4-((2-((R)-9-(pyridin-2-yl)-6-oxaspiro[4.5]decan-9-yl)ethyl)amino)-1,2,3,4-tetrahydronaphthalen-1-ol] |  |  |  |  |  |  | 8 | 130 | 13500 |  |  |  |  | 
O[C@H]1CC[C@H](NCC[C@@]2(c3ccccn3)CCOC3(CCCC3)C2)c2ccccc21 [Example 12, (1S,4S)-4-((2-((R)-9-(pyridin-2-yl)-6-oxaspiro[4.5]decan-9-yl)ethyl)amino)-1,2,3,4-tetrahydronaphthalen-1-ol] |  |  |  |  |  |  | 2 | 125 | 10200 |  |  |  |  | 
